Data: patent US12472166B2, “Inhibition of mycobacterial type VII secretion” (priority 2019, dated 2025)
Where two headings read alike, the source gives them in different places.

Tests used:
[1] = test system: M. tuberculosis; experiment: microbe, parasite or virus in culture; type: cell-based; conditions: for IC50: read-out: IC50 (μM) M.tb/REMA; for IC90: read-out: IC90 (μM) M.tb/REMA; for increase of activity as compared to compound I-12: tested on M. tuberculosis
[2] = test system: M. tuberculosis H37Rv WT; experiment: THP-1 macrophage infection study, CFU counting; type: cell-based, Mycobacterium tuberculosis; conditions: for activity compared with Ethambutol (EMB) / activity compared with Streptomycin (STR) / reduction of bacteria as compared to the DMSO control: 10 μM; for concentration with significant decrease of bacterial load as compared to the DMSO control / concentration required to reduce the bacterial load below the initial amount on day 0: THP-1 macrophages, MOI 1, day 5
[3] = human, microsomes, pH 7.4; for Half-life: 15 μM; for Compound remaining (%): 0.5 h
[4] = in vitro; conditions: human, microsomes, pH 7.4
[5] = test system: M. marinum WT bacteria expressing rfp; conditions: 10 μM
Procedure: To assess anti-bacterial activity of the compounds in an animal model, zebra-fish embryos were infected by injection of WT M. marinum into the cardinal vein. The bacteria express rfp, which enables the quantification of infection in vivo by measuring red fluorescence. After injection of the bacteria into the fish, the infection was allowed to establish for 20 h. Then, the test compounds or DMSO control were added for three days before the infection was quantified by measuring fluorescence in each fish. […] Dechorionated zebra fish embryos were one day post fertilization infected by microinjection into the cardinal vein with 70 M. marinum WT bacteria expressing rfp. 20 h after infection, the compounds were added to the fish water at the indicated concentrations. After 4 days post infection the fish were imaged on a fluorescent microscope (A) and red pixels were quantified (B). As control served non-treated fish and non-infected fish. The fish water of all groups contained equal amounts of DMSO. Each data point represents a single fish. […] Statistical analysis was determined by ANOVA testing by comparing each group to the non-treated group of fish. p>0.05, not significant, not indicated. p<0.05=*, p<0.01=**, p<0.001=***.

[6] = test system: ESX-5 dependent secretion; type: cell-based
[7] = test system: M. marinum; type: cell-based
[8] = test system: PE_PGRS and EsxN (ESX-5 dependent secretion); type: cell-based
[9] = test system: EsxA (ESX-1 dependent secretion); type: cell-based
[10] = test system: M. avium; experiment: Cell viability assay (REMA), susceptibility of bacterial cultures; type: cell-based; conditions: tested up to 80 μM
[11] = test system: M. interjectum; experiment: as above; type: cell-based; conditions: tested up to 80 μM
[12] = test system: M. kansasii; experiment: as above; type: cell-based; conditions: tested up to 80 μM
[13] = test system: M. bovis (BCG); type: cell-based
[14] = test system: fast-growing mycobacteria; experiment: Cell viability assay (REMA), susceptibility of bacterial cultures; type: cell-based; conditions: up to 80 μM
[15] = test system: Escherichia coli; experiment: as above; type: cell-based; conditions: highest tested amount (80 μM)
[16] = test system: Bacillus subtilis; experiment: as above; type: cell-based; conditions: highest tested amount (80 μM)
[17] = test system: M. marinum overexpressing ethA; type: cell-based
[18] = test system: M. smegmatis overexpressing ethA; type: cell-based
[19] = Mycobacterium tuberculosis, 168 h, replicating M. tuberculosis, seven days, 37° C.
[20] = Mycobacterium tuberculosis, concentration that reduced bacterial viability to lower than 10%
[21] = Mycobacterium tuberculosis, 168 h

Compound: CCCNC(=O)CSc1nc(-c2ccccc2)ns1 [Compound I-1]
- IC50 [1, 19]: 0.083 µM
- IC90 [1, 20]: 0.16 µM
- increase of activity as compared to compound I-12 [1]: eight-fold
- activity compared with Ethambutol (EMB) [2]: as active as EMB
- activity compared with Streptomycin (STR) [2]: higher activity than STR
- reduction of bacteria as compared to the DMSO control [2]: approximately 100 fold
- concentration with significant decrease of bacterial load as compared to the DMSO control [2]: 1 µM
- Half-life [3]: 45.6 min
- Compound remaining (%) [3]: 64%
- CLint scaled at 15 μM [4]: 13.6 mL/min/kg

Compound: CCCCCNC(=O)CSc1nc(-c2ccc(OC)cc2)ns1 [Compound I-2]
- IC50 [1, 19]: 0.098 µM
- IC90 [1, 20]: 0.31 µM

Compound: CCCNC(=O)CSc1nc(-c2ccc(OC)cc2)ns1 [Compound I-3]
- IC50 [1, 19]: 0.123 µM
- IC90 [1, 20]: 0.63 µM
- increase of activity as compared to compound I-12 [1]: four-fold
- activity compared with Ethambutol (EMB) [2]: as active as EMB
- activity compared with Streptomycin (STR) [2]: higher activity than STR
- reduction of bacteria as compared to the DMSO control [2]: approximately 100 fold
- concentration with significant decrease of bacterial load as compared to the DMSO control [2]: 1 µM
- Half-life [3]: 9 min
- Compound remaining (%) [3]: 11%
- bacterial fluorescence [5]: reduction of bacterial fluorescence to background levels
- CLint scaled at 15 μM [4]: 67.4 mL/min/kg

Compound: COCCNC(=O)CSc1nc(-c2ccc(OC)cc2)ns1 [Compound I-4]
- IC50 [1, 19]: 0.133 µM
- IC90 [1, 20]: 0.63 µM

Compound: O=C(CSc1nc(-c2ccccc2)ns1)NC1CCCC1 [Compound I-5]
- IC50 [1]: 0.256 µM
- IC90 [1]: 0.63 µM
- increase of activity as compared to compound I-12 [1]: two-fold
- concentration required to reduce the bacterial load below the initial amount on day 0 [2]: 10 µM
- concentration with significant decrease of bacterial load as compared to the DMSO control [2]: 3 µM
- Half-life [3]: 70.8 min
- Compound remaining (%) [3]: 75%
- CLint scaled at 15 μM [4]: 8.78 mL/min/kg

Compound: C=CCNC(=O)CSc1nc(-c2ccc(OC)cc2)ns1 [Compound I-6]
- IC50 [1, 21]: 0.291 µM
- IC90 ([1]; Mycobacterium tuberculosis): 0.63 µM

Compound: C#CCNC(=O)CSc1nc(-c2ccc(OC)cc2)ns1 [Compound I-7]
- IC50 [1, 19]: 0.306 µM
- IC90 [1, 20]: 0.63 µM

Compound: COc1cccc(-c2nsc(SCC(=O)NC3CCCC3)n2)c1 [Compound I-8]
- IC50 [1, 19]: 0.076 µM
- IC90 [1, 20]: 1.25 µM

Compound: COc1ccc(-c2nsc(SCC(=O)NC(C)C)n2)cc1 [Compound I-9]
- IC50 [1, 19]: 0.152 µM
- IC90 [1, 20]: 1.25 µM

Compound: CCNC(=O)CSc1nc(-c2ccccc2)ns1 [Compound I-10]
- IC50 [1, 19]: 0.383 µM
- IC90 [1, 20]: 1.25 µM

Compound: COc1ccc(-c2nsc(SCC(=O)N3CCCCC3)n2)cc1 [Compound I-11]
- IC50 [1, 19]: 0.531 µM
- IC90 [1, 20]: 1.25 µM

Compound: COc1ccc(-c2nsc(SCC(=O)NC3CCCC3)n2)cc1 [Compound I-12]
- IC50 [1, 21]: 0.535 µM
- IC90 ([1]; Mycobacterium tuberculosis): 1.25 µM
- susceptibility (REMA) ([1]; tested up to 80 μM): susceptible
- ESX-5 activity, % of the DMSO treated control [6]: 27%
- increase of MIC towards M. marinum when mspA was over-produced [7]: 2 fold
- more compound required to significantly reduce viability when mspA was over-produced [7]: 4 fold
- reduction in bacterial viability (REMA) [7]: 77%
- susceptibility (REMA) [7]: susceptible
- concentration at which reduction of ESX-5 substrates EsxN and PE_PGRS proteins was observed [8]: 10 µM
- secretion of EsxA [9]: reduced secretion of EsxA
- concentration required to reduce the bacterial load below the initial amount on day 0 [2]: 10 µM
- concentration with significant decrease of bacterial load as compared to the DMSO control [2]: 3 µM
- susceptibility (REMA) [10]: resistant
- susceptibility (REMA) [11]: resistant
- susceptibility (REMA) [12]: susceptible
- susceptibility (REMA) [13]: susceptible
- susceptibility (REMA) [14]: resistant
- susceptibility (REMA) [15]: resistant
- susceptibility (REMA) [16]: resistant
- increased susceptibility as compared to the parent WT strain [17]: at least 4 fold
- susceptibility on overexpression of ethA [18]: did not render this strain susceptible

Compound: COc1ccc(-c2nsc(SCC(=O)NC3CC3)n2)cc1 [Compound I-13]
- IC50 [1, 19]: 0.478 µM
- IC90 [1, 20]: 1.25 µM

Compound: CCCCNC(=O)CSc1nc(-c2ccc(OC)cc2)ns1 [Compound I-14]
- IC50 [1, 19]: 0.496 µM
- IC90 [1, 20]: 1.25 µM

Compound: COc1ccc(-c2nsc(SCC(=O)N3CCOCC3)n2)cc1 [Compound I-15]
- IC50 [1, 19]: 0.121 µM
- IC90 [1, 20]: 2.5 µM

Compound: Cc1cccc(-c2nsc(SCC(=O)NC3CCCC3)n2)c1 [Compound I-16]
- IC50 [1, 19]: 0.121 µM
- IC90 [1, 20]: 2.5 µM

Compound: O=C(CSc1nc(-c2ccc(Cl)cc2)ns1)NC1CCCC1 [Compound I-17]
- IC50 [1, 19]: 0.21 µM
- IC90 [1, 20]: 2.5 µM

Compound: Cc1cccc(-c2nsc(SCC(=O)N3CCCCC3)n2)c1 [Compound I-18, reference compound]
- IC50 [1, 19]: 0.251 µM
- IC90 [1, 20]: 2.5 µM

Compound: O=C(CSc1nc(-c2cccnc2)ns1)NC1CCCC1 [Compound I-19]
- IC50 [1, 19]: 0.502 µM
- IC90 [1, 20]: 2.5 µM

Compound: COc1ccc(-c2nsc(SCC(=O)Nc3ccccn3)n2)cc1 [Compound I-20]
- IC50 [1, 19]: 0.502 µM
- IC90 [1, 20]: 2.5 µM

Compound: COc1ccc(-c2nsc(SCC(=O)Nc3ccccc3)n2)cc1 [Compound I-21]
- IC50 [1, 19]: 0.559 µM
- IC90 [1, 20]: 2.5 µM
